Experimental data as given in patent publication US7612087B2, “Heterocyclic compounds as inhibitors of beta-lactamases” (Novexel, priority 2002, dated 2009).

Columns and labels:
E. coli 250HT22 (Tem2) = test: MIC, micro-dilution in liquid medium, β-lactamine with product at 5 mg/l; assay type: cell-based; conditions: compound at 5 mg/l, 24 hours at 37° C.
How it was run: (§1)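 Strains were seeded into liquid-medium dilutions of β-lactamine, each supplemented with a fixed 5 mg/l of test compound, and held 24 hours at 37° C in a heating chamber. Minimal inhibitory concentration was the level at which bacterial development was wholly absent.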

E. coli 250SJ1 (Tem7) = test: as above; assay type: cell-based; conditions: compound at 5 mg/l, 24 hours at 37° C.
How it was run: as §1

Serratia 301HT6 = test: as above; assay type: cell-based; conditions: compound at 5 mg/l; Trial 10, 301HT6 Serratia; 24 hours at 37° C.
How it was run: as §1

[1] = tested on: P. aeruginosa 391HT8 (PSE); test: as above; assay type: cell-based; conditions: compound at 5 mg/l, 24 hours at 37° C.
How it was run: as §1

E. coli 250HT21 (Tem1) = test: as above; assay type: cell-based; conditions: compound at 5 mg/l, 24 hours at 37° C.
How it was run: as §1

E. coli 250HT26 (SHV1) = test: as above; assay type: cell-based; conditions: compound at 5 mg/l, 24 hours at 37° C.
How it was run: as §1

[2] = tested on: E. cloacae 293HT6 (Class C); test: as above; assay type: cell-based; conditions: compound at 5 mg/l, 24 hours at 37° C.
How it was run: as §1

[3] = tested on: S. aureus 011GO66 (PeniR); test: as above; assay type: cell-based; conditions: compound at 5 mg/l, 24 hours at 37° C.
How it was run: as §1

[4] = tested on: E. coli 250HT23 (Class D); test: as above; assay type: cell-based; conditions: compound at 5 mg/l, 24 hours at 37° C.
How it was run: as §1

E. coli 250BE1 (SHV4) = test: as above; assay type: cell-based; conditions: compound at 5 mg/l, 24 hours at 37° C.
How it was run: as §1

[5] = tested on: P. aeruginosa 391HT7 (PSE); test: as above; assay type: cell-based; conditions: compound at 5 mg/l, 24 hours at 37° C.
How it was run: as §1

β-lactamase P99 = biological target: T1, β-lactamase P99 (Enterobacter cloacae, UniProt P05364); test: biochemical; conditions: 100 μM Nitrocefin, 50 mM sodium phosphate buffer pH7.0, 37° C.; read-out: IC50 nM/P99
T1 construct: The β-lactamases are isolated from bacterial strains which are resistant to penicillins and cephalosporins; endogenous in cells; host or cells: Enterobacter cloacae 293HT6 (natural producer; French-press lysate, 100,000 g supernatant)
How it was run: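 P99 β-lactamase, taken from the soluble fraction of an Enterobacter cloacae 293HT6 lysate, was assayed at 37° C. in 50 mM sodium phosphate buffer pH7.0 with 100 μM Nitrocefin as the chromogenic substrate. Hydrolysis was followed kinetically at 485 nm at initial speed, with and without a 5 mn enzyme–inhibitor preincubation. Inhibitors were tested at 6 or 8 concentrations in duplicate, and IC50 was fitted with GraFit.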

β-lactamase TEM1 = biological target: T2, β-lactamase TEM1 (Escherichia coli, UniProt P62593); test: Inhibition of isolated β-lactamase Tem-1 (Nitrocefin hydrolysis); assay type: biochemical, E.coli 250HT21; conditions: 100 μM Nitrocefin, 50 mM sodium phosphate buffer pH7.0, 37° C.
T2 construct: The β-lactamases are isolated from bacterial strains which are resistant to penicillins and cephalosporins; endogenous in cells; host or cells: E. coli 250HT21 (natural producer; French-press lysate, 100,000 g supernatant)
How it was run: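 TEM-1 from soluble extract of E. coli 250HT21, normalized enzyme, 100 μM Nitrocefin in 50 mM sodium phosphate pH 7.0 at 37 °C. Initial-rate hydrolysis read kinetically at 485 nm, with and without 5 min enzyme–inhibitor preincubation. CI50 from 6 or 8 concentrations in duplicate.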

E. coli 250CF1 (Tem3) = test: microbe, parasite or virus in culture; assay type: cell-based; conditions: compound at 5 mg/l, 24 hours at 37° C.
How it was run: as §1

T2 sequence (P62593 24-286 limits assumed): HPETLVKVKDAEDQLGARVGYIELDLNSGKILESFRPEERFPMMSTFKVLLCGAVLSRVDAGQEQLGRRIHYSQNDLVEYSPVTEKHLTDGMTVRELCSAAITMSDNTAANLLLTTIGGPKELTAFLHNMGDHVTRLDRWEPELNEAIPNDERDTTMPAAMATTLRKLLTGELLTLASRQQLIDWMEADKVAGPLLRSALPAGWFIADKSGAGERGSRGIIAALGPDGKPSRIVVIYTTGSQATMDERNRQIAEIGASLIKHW
T1 sequence (P05364 21-381): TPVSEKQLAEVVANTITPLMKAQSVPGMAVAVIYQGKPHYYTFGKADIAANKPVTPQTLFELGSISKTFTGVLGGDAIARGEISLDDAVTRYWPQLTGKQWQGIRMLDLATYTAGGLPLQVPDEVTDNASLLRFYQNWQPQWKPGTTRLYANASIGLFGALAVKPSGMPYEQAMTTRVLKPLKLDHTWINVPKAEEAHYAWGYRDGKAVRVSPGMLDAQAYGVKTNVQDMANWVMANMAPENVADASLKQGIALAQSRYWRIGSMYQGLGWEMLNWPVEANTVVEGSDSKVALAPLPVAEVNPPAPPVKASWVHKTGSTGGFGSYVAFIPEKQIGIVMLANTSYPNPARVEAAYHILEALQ

NC(=O)c1cccc(NC(=O)[C@H]2CC[C@@H]3CN2C(=O)N3OS(=O)(=O)[O-])c1.[Na+] (relative stereo) [Example 39, sodium salt of trans-N-[3-(aminocarbonyl)phenyl]-7-oxo-6-(sulphooxy)-1,6-diazabicyclo[3.2.1]octane-2-carboxamide]
MIC of Cefotaxime in combination with the compound (E. coli 250HT22 (Tem2); Trial 3, 250HT22 E. coli Tem2): <=0.04 μg/ml
MIC of Piperacillin in combination with the compound (E. coli 250HT22 (Tem2); Trial 3, 250HT22 Tem2): 20 µg/mL
MIC of Cefotaxime in combination with the compound (E. coli 250SJ1 (Tem7); Trial 5, 250SJ1 E. coli Tem7): <=0.04 μg/ml
MIC of Piperacillin in combination with the compound (E. coli 250SJ1 (Tem7); Trial 5, 250SJ1 Tem7): >40 µg/mL
MIC of Cefotaxime in combination with the compound (Serratia 301HT6): <=0.04 μg/ml
MIC of Piperacillin in combination with the compound (Serratia 301HT6): 0.6 µg/mL
MIC of Cefotaxime in combination with the compound ([1]; Trial 12, 391HT8 P. aeruginosa PSE): 20 µg/mL
MIC of Piperacillin in combination with the compound ([1]; Trial 12, 391HT8 PSE): >40 µg/mL
MIC of Cefotaxime in combination with the compound (E. coli 250HT21 (Tem1); Trial 2, 250HT21 E. coli Tem1): <=0.04 μg/ml
MIC of Piperacillin in combination with the compound (E. coli 250HT21 (Tem1); Trial 2, 250HT21 Tem1): 2.5 µg/mL
MIC of Cefotaxime in combination with the compound (E. coli 250HT26 (SHV1); Trial 6, 250HT26 E. coli SHV1): <=0.04 μg/ml
MIC of Piperacillin in combination with the compound (E. coli 250HT26 (SHV1); Trial 6, 250HT26 SHV1): 40 µg/mL
MIC of Piperacillin in combination with the compound ([2]; Trial 9, 293HT6 Class): 20 µg/mL
MIC of Cefotaxime in combination with the compound ([2]; Trial 9, 293HT6 E. cloacae Class C): 1.2 µg/mL
MIC of Cefotaxime in combination with the compound ([3]; Trial 1, 011GO66 S. aureus PeniR): 2.5 µg/mL
MIC of Piperacillin in combination with the compound ([3]; Trial 1, 011GO66 peniR): 1.2 µg/mL
MIC of Piperacillin in combination with the compound ([4]; Trial 8, 250HT23 Class D): 10 µg/mL
MIC of Cefotaxime in combination with the compound ([4]; Trial 8, 250HT23 E. coli Class D): <=0.04 μg/ml
MIC of Cefotaxime in combination with the compound (E. coli 250BE1 (SHV4); Trial 7, 250BE1 E. coli SHV4): 0.08 µg/mL
MIC of Piperacillin in combination with the compound (E. coli 250BE1 (SHV4); Trial 7, 250BE1 SHV4): 20 µg/mL
MIC of Cefotaxime in combination with the compound ([5]; Trial 11, 391HT7 P. aeruginosa PSE): 20 µg/mL
MIC of Piperacillin in combination with the compound ([5]; Trial 11, 391HT7 PSE): >40 µg/mL
IC50 (β-lactamase P99): 50 nM
IC50 (β-lactamase TEM1): 31 nM
MIC of Cefotaxime in combination with the compound (E. coli 250CF1 (Tem3); Trial 4, 250CF1 E. coli Tem3): 0.08 µg/mL
MIC of Piperacillin in combination with the compound (E. coli 250CF1 (Tem3); Trial 4, 250CF1 Tem3): 40 µg/mL
